Experimental data from patent publication US20080132505A1 (Glaxo Group Limited, priority 2004, published 2008).
Where a name gives a salt, the structure may show the parent alone. Read-outs that look alike come from different tables or passages of the source.

Biological target: human cannabinoid CB2 receptor (Homo sapiens, UniProt P34972)
Test: Cannabinoid CB2 receptor agonist activity (yeast reporter assay, FDGlu fluorescence)
Type: cell-based
Details: for Emax: read-out: efficacy value (Emax relative to HU210) at the cloned human cannabinoid CB2 receptor
Method in brief: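 Agonist-driven growth was read as fluorescein fluorescence (ex 485, em 535 nm) from FDGlu cleavage after 24 h at 30 °C, using yeast strain MMY23 carrying human CB2 and chimeric Gpa1/Gαi3. Medium had 10 mM 3-aminotriazole, pH 7.0; four-parameter fits gave EC50, with Emax and EMR versus HU210.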

[1] = EC50 value at the cloned human cannabinoid CB2 receptor
[2] = read-out: EC50 value at the cloned human cannabinoid CB2 receptor

Sequence of human cannabinoid CB2 receptor (P34972 whole entry): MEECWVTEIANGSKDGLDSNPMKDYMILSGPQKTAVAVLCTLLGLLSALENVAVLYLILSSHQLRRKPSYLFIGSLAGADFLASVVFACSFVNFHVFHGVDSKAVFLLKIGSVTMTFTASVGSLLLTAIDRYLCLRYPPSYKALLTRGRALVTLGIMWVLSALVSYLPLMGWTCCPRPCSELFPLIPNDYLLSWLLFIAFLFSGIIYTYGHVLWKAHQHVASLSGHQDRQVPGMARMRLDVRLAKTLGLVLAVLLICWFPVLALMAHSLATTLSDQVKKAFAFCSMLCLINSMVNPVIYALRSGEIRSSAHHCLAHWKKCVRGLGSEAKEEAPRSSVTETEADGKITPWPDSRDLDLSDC

| EC50 [2] [nM] | SMILES | EC50 [1] [nM] | Emax [%] |
| --- | --- | --- | --- |
| – | O=C(NCc1ccncc1)c1cnc(Nc2cccc(Cl)c2)nc1C(F)(F)F [Example 267, 2-(3-Chlorophenylamino)-4-trifluoromethylpyrimidine-5-carboxylic acid (pyridin-4-ylmethyl)amide] | 20 to 300 | – |
| – | CN(Cc1ccccc1)C(=O)c1cnc(Nc2cccc(Cl)c2)nc1C(F)(F)F [Example 268, 2-(3-Chlorophenylamino)-4-trifluoromethylpyrimidine-5-carboxylic acid N-benzyl-N-methylamide] | 20 to 300 | – |
| – | COc1ccc(CNC(=O)c2cnc(Nc3cccc(Cl)c3)nc2C(F)(F)F)cc1 [Example 269, 2-(3-Chlorophenylamino)-4-trifluoromethylpyrimidine-5-carboxylic acid 4-methoxybenzyl-amide] | 20 to 300 | > 50 |
| 20 to 300 | O=C(NCc1ccc(F)cc1)c1cnc(Nc2cccc(Cl)c2)nc1C(F)(F)F [Example 270, 2-(3-Chlorophenylamino)-4-trifluoromethylpyrimidine-5-carboxylic acid 4-fluorobenzyl-amide] | – | – |
| – | N#Cc1ccc(CNC(=O)c2cnc(Nc3cccc(Cl)c3)nc2C(F)(F)F)cc1 [Example 271, 2-(3-Chlorophenylamino)-4-trifluoromethylpyrimidine-5-carboxylic acid 4-cyanobenzyl-amide] | 20 to 300 | > 50 |
| – | CN(Cc1ccccc1)C(=O)c1cnc(Nc2cccc(Cl)c2Cl)nc1C(F)(F)F [Example 272, 2-(2,3-Dichlorophenylamino)-4-trifluoromethylpyrimidine-5-carboxylic acid N-benzyl-N-methylamide] | 20 to 300 | – |
| – | O=C(NCc1ccccc1)c1cnc(Nc2ccc(Cl)cc2Cl)nc1C(F)(F)F [Example 273, 2-(2,4-Dichlorophenylamino)-4-trifluoromethylpyrimidine-5-carboxylic acid benzyl-amide] | 20 to 300 | – |
| – | O=C(NCc1ccccc1)c1cnc(Nc2ccc(Cl)c(Cl)c2)nc1C(F)(F)F [Example 274, 2-(3,4-Dichlorophenylamino)-4-trifluoromethylpyrimidine-5-carboxylic acid benzyl-amide] | 20 to 300 | – |
| – | CN(Cc1ccccc1)C(=O)c1cnc(Nc2c(Cl)cccc2Cl)nc1C(F)(F)F [Example 275, 2-(2,6-Dichlorophenylamino)-4-trifluoromethylpyrimidine-5-carboxylic acid N-benzyl-N-methylamide] | 20 to 300 | – |
| – | O=C(NCc1ccccc1)c1cnc(Nc2cc(Cl)cc(Cl)c2)nc1C(F)(F)F [Example 276, 2-(3,5-Dichlorophenylamino)-4-trifluoromethylpyrimidine-5-carboxylic acid benzyl-amide] | 20 to 300 | – |
| – | O=C(NCc1ccccc1)c1cnc(Nc2cccc(F)c2)nc1C(F)(F)F [Example 277, 2-(3-Fluorophenylamino)-4-trifluoromethylpyrimidine-5-carboxylic acid benzyl-amide] | 20 to 300 | > 50 |
| – | O=C(NCc1ccccc1)c1cnc(Nc2cccc(Br)c2)nc1C(F)(F)F [Example 278, 2-(3-Bromophenylamino)-4-trifluoromethylpyrimidine-5-carboxylic acid benzyl-amide] | 20 to 300 | > 50 |
| – | CN(Cc1ccccc1)C(=O)c1cnc(Nc2cccc(Br)c2)nc1C(F)(F)F [Example 279, 2-(3-Bromophenylamino)-4-trifluoromethylpyrimidine-5-carboxylic acid N-benzyl-N-methylamide] | 20 to 300 | – |
| – | COc1ccccc1Nc1ncc(C(=O)NCc2ccccc2)c(C(F)(F)F)n1 [Example 280, 2-(2-Methoxyphenylamino)-4-trifluoromethylpyrimidine-5-carboxylic acid benzyl-amide] | 20 to 300 | > 50 |
| – | O=C(NCc1ccncc1)c1cnc(Nc2cccc(Cl)c2Cl)nc1C(F)(F)F [Example 281, 2-(2,3-Dichlorophenylamino)-4-trifluoromethylpyrimidine-5-carboxylic acid (pyridin-4-ylmethyl)amide] | 20 to 300 | – |
| – | O=C(NCc1ccncc1)c1cnc(Nc2ccc(Cl)cc2Cl)nc1C(F)(F)F [Example 282, 2-(2,4-Dichlorophenylamino)-4-trifluoromethylpyrimidine-5-carboxylic acid (pyridin-4-ylmethyl)amide] | 20 to 300 | – |
| – | O=C(NCc1ccncc1)c1cnc(Nc2ccc(Cl)c(Cl)c2)nc1C(F)(F)F [Example 283, 2-(3,4-Dichlorophenylamino)-4-trifluoromethylpyrimidine-5-carboxylic acid (pyridin-4-ylmethyl)amide] | 20 to 300 | – |
| – | O=C(NCc1ccncc1)c1cnc(Nc2cc(Cl)ccc2Cl)nc1C(F)(F)F [Example 284, 2-(2,5-Dichlorophenylamino)-4-trifluoromethylpyrimidine-5-carboxylic acid (pyridin-4-ylmethyl)amide] | 20 to 300 | – |

| EC50 [2] [nM] | SMILES | EC50 [1] [nM] | Emax [%] |
| --- | --- | --- | --- |
| – | O=C(NCc1ccncc1)c1cnc(Nc2cccc(F)c2)nc1C(F)(F)F [Example 285, 2-(3-Fluorophenylamino)-4-trifluoromethylpyrimidine-5-carboxylic acid (pyridin-4-ylmethyl)amide] | 20 to 300 | – |
| – | O=C(NCc1ccncc1)c1cnc(Nc2cccc(Br)c2)nc1C(F)(F)F [Example 286, 2-(3-Bromophenylamino)-4-trifluoromethylpyrimidine-5-carboxylic acid (pyridin-4-ylmethyl)amide] | 20 to 300 | – |
| – | O=C(NCc1ccncc1)c1cnc(Nc2cc(Cl)cc(Cl)c2)nc1C(F)(F)F [Example 287, 2-(3,5-Dichlorophenylamino)-4-trifluoromethylprimidine-5-carboxylic acid (pyridin-4-ylmethyl)amide] | 20 to 300 | – |
| – | O=C(NCc1ccc(F)cc1)c1cnc(Nc2cccc(F)c2)nc1C(F)(F)F [Example 288, 2-(3-Fluorophenylamino)-4-trifluoromethylpyrimidine-5-carboxylic acid 4-fluorobenzyl-amide] | 20 to 300 | – |
| 20 to 300 | O=C(NCc1ccc(F)cc1)c1cnc(Nc2cccc(Br)c2)nc1C(F)(F)F [Example 289, 2-(3-Bromophenylamino)-4-trifluoromethylpyrimidine-5-carboxylic acid 4-fluorobenzyl-amide] | – | – |
| – | O=C(NCc1ccc(F)cc1)c1cnc(Nc2cc(Cl)cc(Cl)c2)nc1C(F)(F)F [Example 290, 2-(3,5-Dichlorophenylamino)-4-trifluoromethylpyrimidine-5-carboxylic acid 4-fluorobenzyl-amide] | 20 to 300 | – |
| – | N#Cc1ccc(CNC(=O)c2cnc(Nc3cc(Cl)cc(Cl)c3)nc2C(F)(F)F)cc1 [Example 291, 2-(3,5-Dichlorophenylamino)-4-trifluoromethylpyrimidine-5-carboxylic acid 4-cyanobenzylamide] | 20 to 300 | – |
| – | N#Cc1ccc(Nc2ncc(C(=O)NCc3ccccc3)c(C(F)(F)F)n2)cc1 [Example 292, 2-(4-Cyano-phenylamino)-4-trifluoromethyl-pyrimidine-5-carboxylic acid benzylamide] | 20 to 300 | > 50 |
| – | Cc1cc(CNC(=O)c2cnc(Nc3cccc(Cl)c3)nc2C(F)(F)F)ccn1 [Example 293, 2-(3-Chloro-phenylamino)-4-trifluoromethyl-pyrimidine-5-carboxylic acid (2-methyl-pyridin-4-ylmethyl)-amide hydrochloride] | 20 to 300 | – |
| – | O=C(NCc1ccnc(F)c1)c1cnc(Nc2cccc(Cl)c2)nc1C(F)(F)F [Example 294, 2-(3-Chloro-phenylamino)-4-trifluoromethyl-pyrimidine-5-carboxylic acid (2-fluoro-pyridin-4-ylmethyl)-amide] | 20 to 300 | – |
| – | COc1cccc(Nc2ncc(C(=O)NCc3ccccc3)c(C(F)(F)F)n2)c1 [Example 295, 2-(3-Methoxy-phenylamino)-4-trifluoromethyl-pyrimidine-5-carboxylic acid benzylamide] | 300 to 1000 | > 50 |
| 300 to 1000 | COc1ccccc1Nc1ncc(C(=O)N(C)Cc2ccccc2)c(C(F)(F)F)n1 [Example 296, 2-(2-Methoxy-phenylamino)-4-trifluoromethyl-pyrimidine-5-carboxylic acid N-benzyl-N-methyl-amide] | – | – |
| – | COc1cccc(Nc2ncc(C(=O)N(C)Cc3ccccc3)c(C(F)(F)F)n2)c1 [Example 297, 2-(3-Methoxy-phenylamino)-4-trifluoromethyl-pyrimidine-5-carboxylic acid N-benzyl-N-methyl-amide] | 300 to 1000 | > 50 |
| – | O=C(NCc1ccc(Cl)cc1)c1cnc(Nc2cccc(Cl)c2)nc1C(F)(F)F [Example 298, 2-(3-Chloro-phenylamino)-4-trifluoromethyl-pyrimidine-5-carboxylic acid 4-chloro-benzylamide] | 300 to 1000 | > 50 |
| – | CCN(Cc1ccccc1)C(=O)c1cnc(Nc2cccc(Cl)c2)nc1C(F)(F)F [Example 299, 2-(3-Chloro-phenylamino)-4-trifluoromethyl-pyrimidine-5-carboxylic acid N-benzyl-N-ethyl-amide] | 300 to 1000 | > 50 |
| – | O=C(NCc1ccccc1)c1cnc(Nc2cccc(Cl)c2Cl)nc1C(F)(F)F [Example 300, 2-(2,3-Dichloro-phenylamino)-4-trifluoromethyl-pyrimidine-5-carboxylic acid benzylamide] | 300 to 1000 | > 50 |
| – | CN(Cc1ccccc1)C(=O)c1cnc(Nc2cccc(F)c2)nc1C(F)(F)F [Example 301, 2-(3-Fluoro-phenylamino)-4-trifluoromethyl-pyrimidine-5-carboxylic acid N-benzyl-N-methyl-amide] | 300 to 1000 | > 50 |
| – | CC(C)Cc1ccc(CNC(=O)c2cnc(Nc3cccc(Cl)c3)nc2C(F)(F)F)cc1 [Example 302, 2-(3-Chloro-phenylamino)-4-trifluoromethyl-pyrimidine-5-carboxylic acid 4-isobutyl-benzylamide] | 300 to 1000 | > 50 |
